≈ marks a conversion by molar mass, not a printed value. Read-outs that look alike come from different tables or passages of the source.

Data set [1] can be described thus: Thermodynamic aqueous solubility in USP phosphate buffer (Example 25). It counts as physicochemical. The conditions noted are these: USP phosphate buffer pH 7.4, 24 h at 20° C., LC-MS/MS, read-out: Thermodynamic aq solubility. The procedure:
The method described here was developed to accurately determine the aqueous solubility of compounds of the invention in buffer solution at a given pH.
Solid material (1 mg) of test compound is added to a glass vial followed by 1 ml of buffer solution (pH 7.4 if another pH not is stated). The solution is left on an orbital shaker for 24 h at 20° C. After incubation, the remaining solid material is separated from solution and the solubility is quantified using LC-MS/MS.
Prepare 0.2 M monobasic potassium phosphate solution by dissolving 27.22 g of KH2PO4 (MW=136.09 g/mol) in water, dilute with water to 1000 mL.
Add 250 mL of the monobasic potassium phosphate solution in a 1000 mL volumetric flask together with 195.5 mL 0.2M NaOH (aq). Add water to 1000 mL. Check pH.
Compounds of the invention/examples to be tested were provided as solid material, weighed into glass vials (2 mL). Each vial contains approximately 1 mg solid compound, two vials/compound are prepared, i.e. duplicate samples of each compound. If a freshly prepared 10 mM DMSO stock solution was available, this solution was used for MS optimization and preparation of standards. If a DMSO-stock solution was not available, a 10 mM solution from solid material 1 mg was prepared.
• Test compounds are employed as solid material. Since duplicate samples are prepared for each compound, each test compound arrives in two vials (1+1 mg). Samples are denoted as sample 1 and 2. • Note amount of substance in each vial. Add USP phosphate buffer pH 7.4 (1 mL) to each sample vial and seal vials using screw caps. Determine whether the solutions are saturated or if compounds are dissolved, note appearance and time. Start incubation; the samples are incubated on an orbital shaker (450 rpm) at 20° C. for 24 hours.
• Take out the 1 mM DMSO-stock solutions of compounds that are to be tested from freezer. If no 1 mM solutions are available, use master solutions with concentration of 10 mM. Allow the solutions to thaw at rt. • Collect two 96-deep well plates, glass inserts, sealing film, and an 8-channel expandable pipette with tall tips. • Abort shaking after 24 hour. • Note if samples are saturated or if compounds have dissolved. • Transfer 720 μL of sample slurry from each sample vial into glass inserts in a 96-deep well plate using an 8-channel expandable pipette. Samples 1 and 2 are transferred to separate plates. Thus, all samples 1 are placed in one plate and all samples 2 in the second plate. • Seal the plates using sealing film. • Centrifuge the plates at 3000 rpm for 15 min at rt. Set acceleration to 9 and brake to 7 (9=fastest acc/brake, 0=slowest acc/brake). • Transfer the supernatants to new glass inserts using an 8-channel pipette, centrifuge samples a second time. • Repeat the procedure above, i.e. centrifuge samples a third time. • After the third centrifugation, transfer supernatant to glass vials, seal vials with screw caps. Control that the solutions are clear and that no particles are present in sample. If solid material is observed, an additional centrifugation step is performed. • Standards are prepared from DMSO-stock solutions (1 or 10 mM). For each compound, transfer […] 1 mM solution to a glass vial, add DMSO (90 μL) to reach a final concentration of 100 μM, seal with screw cap and mix solution quickly on a vortex mixer. Further dilute the 100 μM solution with a 1:1 mixture of acetonitrile and USP phosphate buffer (pH 7.4) to standards with concentration 1000, 500, 100, 25, 2, and 1 nM. Standards are prepared in test tubes.
• Place standards in autosampler. • Try out the dilution of solubility samples so that their response will be within the standard curve. Dilute solubility sample one (or two) with the 1:1 mixture of acetonitrile:buffer. […]

The next data set deals with T1, LTC4 synthase (Homo sapiens, UniProt Q16873).
T1 sequence (Q16873 1-150): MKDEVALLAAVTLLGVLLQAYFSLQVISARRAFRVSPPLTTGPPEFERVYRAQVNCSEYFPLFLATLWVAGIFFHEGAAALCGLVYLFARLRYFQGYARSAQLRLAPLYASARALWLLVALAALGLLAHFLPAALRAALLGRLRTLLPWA
The data set is described as follows: Test 1 in vitro assay: LTC4 synthase converts LTA4 to LTC4, HTRF detection. It counts as biochemical. Details: made in house; host or cells: Pichia pastoris. The conditions noted are these: Test 1 (unless otherwise indicated). The procedure:
In the assay, LTC4 synthase catalyses the reaction where the substrate LTA4 is converted to LTC4. Recombinant human LTC4 synthase is expressed in Piccia pastoralis and the purified enzyme is dissolved in 25 mM tris-buffer pH 7.8 supplemented with 0.1 mM glutathione (GSH) and stored at −80° C. The assay is performed in phosphate buffered saline (PBS) pH 7.4 and 5 mM GSH in 384-well plates.
The following is added chronologically to each well:
1. 48 μL LTC4 synthase in PBS with 5 mM GSH. The total protein concentration in this solution is 0.5 μg/mL. 2. 1 μL inhibitor in DMSO (final concentration 10 μM). 3. Incubation of the plate at room temperature for 10 min. 4. 1 μL LTA4 (final concentration 2.5 μM). 5. Incubation of the plate at room temperature for 5 min. 6. 10 μL of the incubation mixture is analysed using homogenous time resolved fluorescent (HTRF) detection.
IC50 values for title compounds of the examples are depicted in the tables hereinafter (where, they are the values obtained using Test 1, unless otherwise indicated).
(In general: TR-FRET usually uses a lanthanide donor and a delayed reading to cut background.)

Where [2] appears, read: aqueous buffer, thermodynamic from solid.

The solubility (thermodynamic) is the concentration in solution at equilibrium with solid. With `COc1ccc(C(=O)c2ccc(C(=O)c3ccc(N(CC4CC4)c4ccc(Cl)cc4)cn3)cc2C(=O)O)cc1` [1:4, 5-{5-[(4-Chlorophenyl)(cyclopropylmethyl)amino]picolinoyl}-2-(4-methoxy-benzoyl)benzoic acid], the solubility (thermodynamic) at 24 h in data set [1] (setting [2]) is 2210 µM (≈ 1200 µg/mL).

Regarding `COc1ccc(C(=O)c2ccc(C(=O)c3ccc(N(CC4CC4)c4ccc(Cl)cc4F)cn3)cc2C(=O)O)cc1` [1:5, 5-{5-[(4-Chloro-2-fluorophenyl)(cyclopropylmethyl)amino]picolinoyl}-2-(4-methoxybenzoyl)benzoic acid], the thermodynamic solubility at 24 h in data set [1] (setting [2]) amounted to 2480 µM (≈ 1380 µg/mL). On to `CCCCCCC(=O)c1ccc(C(=O)c2ccc(N(C)c3ccc(Cl)cc3)cn2)cc1C(=O)O` [1:17, 5-{5-[(4-Chlorophenyl)(methyl)amino]picolinoyl}-2-heptanoylbenzoic acid], for which the solubility (thermodynamic) at 24 h in data set [1] (setting [2]) amounted to 153 µM (≈ 73.3 µg/mL). Turning to `CN(c1ccc(Cl)cc1)c1ccc(C(=O)c2ccc(C(=O)C3(c4ccccc4)CC3)c(C(=O)O)c2)nc1` [1:19, 5-{5-[(4-Chlorophenyl)(methyl)amino]picolinoyl}-2-(1-phenylcyclopropyl-carbonyl)benzoic acid], in data set [1] (setting [2]), the solubility (thermodynamic) at 24 h was determined as 680 µM (≈ 347 µg/mL). Take `CN(c1ccc(Cl)cc1)c1ccc(C(=O)c2ccc(C(=O)c3ccccc3)c(C(=O)O)c2)nc1` [Example 1:1, 2-Benzoyl-5-{5-[(4-chlorophenyl)(methyl)amino]picolinoyl}benzoic acid]: in data set [1] (setting [2]), the thermodynamic solubility at 24 h came to 2580 µM (≈ 1210 µg/mL). Usually IC50 stands for the concentration that gives 50% inhibition. Low readings indicate inhibition by little substance, high ones a need for much substance. On LTC4 synthase, `CN(c1ccc(Cl)cc1)c1ccc(C(=O)c2ccc(C(=O)c3cccc(C(Cl)Cl)c3)c(C(=O)O)c2)nc1` [Example 2, 5-(5-((4-Chlorophenyl)(methyl)amino)picolinoyl)-2-(3-(dichloromethyl)benzoyl)-benzoic acid] yielded an IC50 of 34 nM. In other words, the double-digit nanomolar range. At LTC4 synthase, `CN(c1ccc(Cl)cc1)c1ccc(C(=O)c2ccc(C(=O)c3cccc(C=O)c3)c(C(=O)O)c2)nc1` [Example 3, 5-(5-((4-Chlorophenyl)(methyl)amino)picolinoyl)-2-(3-formylbenzoyl)benzoic acid] registered an IC50 of 52 nM. In turn, `O=C(c1ccc(C(=O)c2ccc3c(c2)OCCO3)c(C(=O)O)c1)c1ccc(N(CC2CC2)c2ccc(Cl)cc2)cn1` [Example 4, 5-(5-((4-Chlorophenyl)(cyclopropylmethyl)amino)picolinoyl)-2-(2,3-dihydrobenzo-[b][1,4]dioxine-6-carbonyl)benzoic acid] showed an IC50 on LTC4 synthase of 21 nM. Compound `O=C(c1ccc(Cl)cc1)c1ccc(C(=O)c2ccc(C(=O)c3ccccc3)c(C(=O)O)c2)nc1` [Example 5, 2-Benzoyl-5-(5-(4-chlorobenzoyl)picolinoyl)benzoic acid] registered an IC50 at LTC4 synthase of 1290 nM.

For `COc1cccc(C(=O)c2ccc(C(=O)c3ccc(Cc4ccc(Cl)cc4)cn3)cc2C(=O)O)c1` [Example 6, 5-(5-(4-Chlorobenzyl)picolinoyl)-2-(3-methoxybenzoyl)benzoic acid], in data set [1] (setting [2]), the thermodynamic solubility at 24 h amounted to 1900 µM (≈ 924 µg/mL). This compound also showed an IC50 against LTC4 synthase of 155 nM. As for `CN(c1ccc(Cl)cc1)c1ccc(C(=O)c2ccc(C(=O)c3cccc(O)c3)c(C(=O)O)c2)nc1` [Example 7, 5-(5-((4-Chlorophenyl)(methyl)amino)picolinoyl)-2-(3-hydroxybenzoyl)benzoic acid], 83 nM corresponded to half-maximal inhibition at LTC4 synthase (IC50). Consider `O=C(c1ccc(C(=O)C2(c3ccccc3)CC2)c(C(=O)O)c1)c1ccc(N(CC2CC2)c2ccc(Cl)cc2)cn1` [Example 8, 5-(5-((4-Chlorophenyl)(cyclopropylmethyl)amino)picolinoyl)-2-(1-phenylcyclopropanecarbonyl)benzoic acid], for which the solubility (thermodynamic) at 24 h in data set [1] (setting [2]) was 125 µM (≈ 68.9 µg/mL). The same compound yielded an IC50 against LTC4 synthase (Table 2) of 41 nM.

Take `CN(c1ccc(Cl)cc1)c1ccc(C(=O)c2ccc(C(=O)C3(c4ccccc4)CCCCC3)c(C(=O)O)c2)nc1` [Example 9, 5-(5-((4-Chlorophenyl)(methyl)amino)picolinoyl)-2-(1-phenylcyclohexanecarbonyl)benzoic acid]: the solubility (thermodynamic) at 24 h in data set [1] was found to be 7 µM (≈ 3.87 µg/mL). This compound also returned an IC50 against LTC4 synthase (Table 2) of 32 nM.

For `COc1ccc(C2(C(=O)c3ccc(C(=O)c4ccc(N(C)c5ccc(Cl)cc5)cn4)cc3C(=O)O)CC2)cc1` [Example 10, 5-(5-((4-Chlorophenyl)(methyl)amino)picolinoyl)-2-(1-(4-methoxyphenyl)cyclopropanecarbonyl)benzoic acid], the solubility (thermodynamic) at 24 h in data set [1] (setting [2]) amounted to 403 µM (≈ 218 µg/mL). In addition, on LTC4 synthase (Table 2), the midpoint of inhibition, the IC50, lay at 22 nM. Turning to `CN(c1ccc(Cl)cc1)c1ccc(C(=O)c2ccc(C(=O)C3(c4ccccc4)CCCC3)c(C(=O)O)c2)nc1` [Example 11, 5-(5-((4-Chlorophenyl)(methyl)amino)picolinoyl)-2-(1-phenylcyclopentanecarbonyl)benzoic acid], at LTC4 synthase (Table 2), half-maximal inhibition (IC50) required 76 nM. `CN(c1ccc(Cl)cc1)c1ccc(C(=O)c2ccc(C(=O)C34CC5CC(CC(C5)C3)C4)c(C(=O)O)c2)nc1` [Example 12, 2-(Adamantane-1-carbonyl)-5-(5-((4-chlorophenyl)(methyl)amino)picolinoyl)benzoic acid]: the thermodynamic solubility at 24 h in data set [1] (setting [2]) is 15 µM (≈ 7.94 µg/mL). For the same compound, 65 nM corresponded to half-maximal inhibition on LTC4 synthase (Table 2) (IC50). On to `COc1cccc(C(=O)c2ccc(C(=O)c3ccc(N(CC4CC4)c4ccc(Cl)cc4)cn3)cc2C(=O)O)c1` [Example 13, 5-(5-((4-Chlorophenyl)(cyclopropylmethyl)amino)picolinoyl)-2-(3-methoxybenzoyl)benzoic acid], for which the IC50 against LTC4 synthase (Table 2) stood at 18 nM. In other words, the double-digit nanomolar range. The same measure, in the same setting: the same measure for `CN(c1ccc(Cl)cc1)c1ccc(C(=O)c2ccc(C(=O)C(C)(C)c3ccccc3)c(C(=O)O)c2)nc1` [Example 16, 5-(5-((4-Chlorophenyl)(methyl)amino)picolinoyl)-2-(2-methyl-2-phenylpropanoyl)benzoic acid]: 55 nM; for `CN(c1ccc(Cl)cc1)c1ccc(C(=O)c2ccc(C(=O)CC(C)(C)C)c(C(=O)O)c2)nc1` [Example 17, 5-(5-((4-Chlorophenyl)(methyl)amino)picolinoyl)-2-(3,3-dimethylbutanoyl)benzoic acid]: 235 nM; for `CN(c1ccc(Cl)cc1)c1ccc(C(=O)c2ccc(C(=O)C3CC3c3ccccc3)c(C(=O)O)c2)nc1` (stereo not drawn) [Example 19, 5-(5-((4-Chlorophenyl)(methyl)amino)picolinoyl)-2-(2-phenylcyclopropanecarbonyl)benzoic acid]: 141 nM. Take `CN(c1ccc(Cl)cc1)c1ccc(C(=O)c2ccc(C(=O)CC3CCCC3)c(C(=O)O)c2)nc1` [Example 20, 5-(5-((4-Chlorophenyl)(methyl)amino)picolinoyl)-2-(2-cyclopentylacetyl)benzoic acid]: on LTC4 synthase (Table 2), the IC50 turned out to be 81 nM. On the same count and under the same terms, the same measure for `COc1cccc(CC(=O)c2ccc(C(=O)c3ccc(N(C)c4ccc(Cl)cc4)cn3)cc2C(=O)O)c1` [Example 21]: 192 nM.

The values are drawn from patent US20130035358A1, “Bis Aromatic Compounds for Use as LTC4 Synthase Inhibitors” (priority 2010, published 2013).
